The IC50 is the concentration needed to halve the response being measured.

The target of this test is SARS-CoV-2 3CL-protease (Severe acute respiratory syndrome coronavirus 2 (2019-nCoV) (SARS-CoV-2), UniProt P0DTD1). Briefly: SARS-CoV-2 3C-like (3CL) protease fluorescence assay (FRET). Format: biochemical. The settings on record: recombinant SARS-CoV-2 3CL-protease 10 nM, 30 min preincubation at RT, peptide substrate, run in duplicate; IC50 ranges.
Take `C#C[C@@H]1C[C@@]2(CN1C(=O)[C@H](CC(C)(C)F)NC(=O)c1cc3cc(Cl)ccc3[nH]1)C(=O)Nc1ccccc12` [Compound 3, 5-chloro-N—((S)-1-((3R,5′S)-5′-ethynyl-2-oxospiro[indoline-3,3′-pyrrolidin]-1′-yl)-4-fluoro-4-methyl-1-oxopentan-2-yl)-1H-indole-2-carboxamide]: the IC50 was in the range of 0.1 to 1 µM. To `C#C[C@@H]1C[C@@]2(CN1C(=O)[C@H](CC(C)(C)F)NC(=O)c1cc3cccc(Cl)c3[nH]1)C(=O)Nc1ccccc12` [Compound 5, 7-chloro-N—((S)-1-((3R,5′S)-5′-ethynyl-2-oxospiro[indoline-3,3′-pyrrolidin]-1′-yl)-4-fluoro-4-methyl-1-oxopentan-2-yl)-1H-indole-2-carboxamide] belongs under 0.1 µM; to `C#C[C@@H]1C[C@@]2(CN1C(=O)[C@H](CC(C)(C)F)NC(=O)c1cc3cccc(C(F)(F)F)c3[nH]1)C(=O)Nc1ccccc12` [Compound 13, N—((S)-1-((3R,5′S)-5′-ethynyl-2-oxospiro[indoline-3,3′-pyrrolidin]-1′-yl)-4-fluoro-4-methyl-1-oxopentan-2-yl)-7-(trifluoromethyl)-1H-indole-2-carboxamide], under 0.1 µM; to `C#C[C@@H]1C[C@@]2(CN1C(=O)[C@H](CC(C)(C)F)NC(=O)c1c(Cl)cccc1Cl)C(=O)Nc1ccccc12` [Compound 21, 2,6-dichloro-N—((S)-1-((3R,5′S)-5′-ethynyl-2-oxospiro[indoline-3,3′-pyrrolidin]-1′-yl)-4-fluoro-4-methyl-1-oxopentan-2-yl)benzamide], over 1 µM. In the case of `C#C[C@@H]1C[C@@]2(CN1C(=O)[C@H](CC(C)(C)F)NC(=O)c1cc3ccc(Cl)c(Cl)c3[nH]1)C(=O)Nc1ccccc12` [Compound 7, 6,7-dichloro-N—((S)-1-((3R,5′S)-5′-ethynyl-2-oxospiro[indoline-3,3′-pyrrolidin]-1′-yl)-4-fluoro-4-methyl-1-oxopentan-2-yl)-1H-indole-2-carboxamide] it was under 0.1 µM; in that of `C#C[C@@H]1C[C@@]2(CN1C(=O)[C@H](CC(C)(C)F)NC(=O)c1cc3cccc(F)c3o1)C(=O)Nc1ccccc12` [Compound 17, N—((S)-1-((3R,5′S)-5′-ethynyl-2-oxospiro[indoline-3,3′-pyrrolidin]-1′-yl)-4-fluoro-4-methyl-1-oxopentan-2-yl)-7-fluorobenzofuran-2-carboxamide], over 1 µM; in that of `C#C[C@@H]1C[C@@]2(CN1C(=O)[C@H](CC(C)(C)F)NC(=O)c1cc(F)c3ncccc3c1)C(=O)Nc1ccccc12` [Compound 19, N—((S)-1-((3R,5′S)-5′-ethynyl-2-oxospiro[indoline-3,3′-pyrrolidin]-1′-yl)-4-fluoro-4-methyl-1-oxopentan-2-yl)-8-fluoroquinoline-6-carboxamide], over 1 µM. To `C#C[C@@H]1C[C@@]2(CN1C(=O)[C@H](CC(C)(C)F)NC(=O)c1cc3c(F)cc(F)cc3[nH]1)C(=O)Nc1ccccc12` [Compound 10, N—((S)-1-((3R,5′S)-5′-ethynyl-2-oxospiro[indoline-3,3′-pyrrolidin]-1′-yl)-4-fluoro-4-methyl-1-oxopentan-2-yl)-4,6-difluoro-1H-indole-2-carboxamide] belongs 0.1 to 1 µM; to `C#C[C@@H]1C[C@@]2(CN1C(=O)[C@H](CC(C)(C)F)NC(=O)c1cccc(OC(F)(F)F)c1)C(=O)Nc1ccccc12` [Compound 20, N—((S)-1-((3R,5′S)-5′-ethynyl-2-oxospiro[indoline-3,3′-pyrrolidin]-1′-yl)-4-fluoro-4-methyl-1-oxopentan-2-yl)-3-(trifluoromethoxy)benzamide], 0.1 to 1 µM. Take `C#C[C@@H]1C[C@@]2(CN1C(=O)[C@H](CC(C)(C)F)NC(=O)c1cc3c(F)ccc(F)c3[nH]1)C(=O)Nc1ccccc12` [Compound 11, N—((S)-1-((3R,5′S)-5′-ethynyl-2-oxospiro[indoline-3,3′-pyrrolidin]-1′-yl)-4-fluoro-4-methyl-1-oxopentan-2-yl)-4,7-difluoro-1H-indole-2-carboxamide]: the IC50 is under 0.1 µM. In the case of `C#C[C@@H]1C[C@@]2(CN1C(=O)[C@H](CC(C)(C)F)NC(=O)c1cc3cc(S(C)(=O)=O)ccc3[nH]1)C(=O)Nc1ccccc12` [Compound 1, N—((S)-1-((3R,5′S)-5′-ethynyl-2-oxospiro[indoline-3,3′-pyrrolidin]-1′-yl)-4-fluoro-4-methyl-1-oxopentan-2-yl)-5-(methylsulfonyl)-1H-indole-2-carboxamide] it was 0.1 to 1 µM; in that of `C#C[C@@H]1C[C@@]2(CN1C(=O)[C@H](CC(C)(C)F)NC(=O)c1cc3cccc(C#N)c3[nH]1)C(=O)Nc1ccccc12` [Compound 15, 7-cyano-N—((S)-1-((3R,5′S)-5′-ethynyl-2-oxospiro[indoline-3,3′-pyrrolidin]-1′-yl)-4-fluoro-4-methyl-1-oxopentan-2-yl)-1H-indole-2-carboxamide], under 0.1 µM.

For `C#C[C@@H]1C[C@@]2(CN1C(=O)[C@H](CC(C)(C)F)NC(=O)c1cc3c(Cl)cccc3[nH]1)C(=O)Nc1ccccc12` [Compound 2, 4-chloro-N—((S)-1-((3R,5′S)-5′-ethynyl-2-oxospiro[indoline-3,3′-pyrrolidin]-1′-yl)-4-fluoro-4-methyl-1-oxopentan-2-yl)-1H-indole-2-carboxamide], the IC50 is 0.1 to 1 µM. Regarding `C#C[C@@H]1C[C@@]2(CN1C(=O)[C@H](CC(C)(C)F)NC(=O)c1cc3cc(F)c(F)c(F)c3[nH]1)C(=O)Nc1ccccc12` [Compound 12, N—((S)-1-((3R,5′S)-5′-ethynyl-2-oxospiro[indoline-3,3′-pyrrolidin]-1′-yl)-4-fluoro-4-methyl-1-oxopentan-2-yl)-5,6,7-trifluoro-1H-indole-2-carboxamide], the IC50 is under 0.1 µM.

On to `C#C[C@@H]1C[C@@]2(CN1C(=O)[C@H](CC(C)(C)F)NC(=O)c1cc3cccc(F)c3[nH]1)C(=O)Nc1ccccc12` [Compound 8, N—((S)-1-((3R,5′S)-5′-ethynyl-2-oxospiro[indoline-3,3′-pyrrolidin]-1′-yl)-4-fluoro-4-methyl-1-oxopentan-2-yl)-7-fluoro-1H-indole-2-carboxamide], for which the IC50 was under 0.1 µM. In the case of `C#C[C@@H]1C[C@@]2(CN1C(=O)[C@H](CC(C)(C)F)NC(=O)c1cc3ccc(Cl)cc3[nH]1)C(=O)Nc1ccccc12` [Compound 4, 6-chloro-N—((S)-1-((3R,5′S)-5′-ethynyl-2-oxospiro[indoline-3,3′-pyrrolidin]-1′-yl)-4-fluoro-4-methyl-1-oxopentan-2-yl)-1H-indole-2-carboxamide] it was under 0.1 µM; in that of `C#C[C@@H]1C[C@@]2(CN1C(=O)[C@H](CC(C)(C)F)NC(=O)c1cc3cc(C(F)(F)F)ccc3[nH]1)C(=O)Nc1ccccc12` [Compound 14, N—((S)-1-((3R,5′S)-5′-ethynyl-2-oxospiro[indoline-3,3′-pyrrolidin]-1′-yl)-4-fluoro-4-methyl-1-oxopentan-2-yl)-5-(trifluoromethyl)-1H-indole-2-carboxamide], 0.1 to 1 µM; in that of `C#C[C@@H]1C[C@@]2(CN1C(=O)[C@H](CC(C)(C)F)NC(=O)c1cc3cccnc3[nH]1)C(=O)Nc1ccccc12` [Compound 16, N—((S)-1-((3R,5′S)-5′-ethynyl-2-oxospiro[indoline-3,3′-pyrrolidin]-1′-yl)-4-fluoro-4-methyl-1-oxopentan-2-yl)-1H-pyrrolo[2,3-b]pyridine-2-carboxamide], 0.1 to 1 µM.

On to `C#C[C@@H]1C[C@@]2(CN1C(=O)[C@H](CC(C)(C)F)NC(=O)c1cc3cc(F)ccc3o1)C(=O)Nc1ccccc12` [Compound 18, N—((S)-1-((3R,5′S)-5′-ethynyl-2-oxospiro[indoline-3,3′-pyrrolidin]-1′-yl)-4-fluoro-4-methyl-1-oxopentan-2-yl)-5-fluorobenzofuran-2-carboxamide], for which the IC50 was over 1 µM.

With `C#C[C@@H]1C[C@@]2(CN1C(=O)[C@H](CC(C)(C)F)NC(=O)c1cc3c(Cl)cc(Cl)cc3[nH]1)C(=O)Nc1ccccc12` [Compound 6, 4,6-dichloro-N—((S)-1-((3R,5′S)-5′-ethynyl-2-oxospiro[indoline-3,3′-pyrrolidin]-1′-yl)-4-fluoro-4-methyl-1-oxopentan-2-yl)-1H-indole-2-carboxamide], the IC50 was in the range of 0.1 to 1 µM. In the case of `C#C[C@@H]1C[C@@]2(CN1C(=O)[C@H](CC(C)(C)F)NC(=O)c1cc3ccc(F)cc3[nH]1)C(=O)Nc1ccccc12` [Compound 9, N—((S)-1-((3R,5′S)-5′-ethynyl-2-oxospiro[indoline-3,3′-pyrrolidin]-1′-yl)-4-fluoro-4-methyl-1-oxopentan-2-yl)-6-fluoro-1H-indole-2-carboxamide] it was under 0.1 µM.

These data come from US11858945B2, “Alkyne-containing antiviral agents” (Enanta Pharmaceuticals, Inc., priority 2021, dated 2024).
